Entries after “also recorded” stand apart in the source; their conditions may differ.
Columns and labels:
[1] = system: individuals with untreated clinical depression; assay: Taste recognition thresholds before and two hours after acute paroxetine (SSRI) challenge; type: in vivo, human
Experimental: Taste responses to sweet, salt, bitter and sour stimuli were then determined. Individuals were informed of which taste modality (sweet, bitter, salt, sour) they were receiving but were given no indication of whether the tester thought they would be able to recognise the taste or not.
The taste modalities were applied in solution to the tip of the tongue, using a cotton bud saturated with the solution at room temperature and placed on the tongue for approximately 5 seconds. Without closing their mouth the subject was asked to indicate whether or not they could taste the stimulus at that concentration. Between each stimulus application a 20 second inter-stimulus interval was adhered to during which the subject would rinse their mouth with approximately 25 ml of deionized water.
Each concentration of stimulus was presented to the subject five times in total, and the percentage of positive responses at each concentration determined. Subjects were first presented with a solution above threshold and thereafter, stimuli were presented in a pseudorandom order in concentrations representing ¼ log steps between the lowest (undetectable, 0% detection) to the highest (always detectable, 100% detection) concentrations, with each concentration being presented 5 times.
The range of concentrations for each taste modality was different, as detailed below: • Sweet (1M-300 μM sucrose) • Bitter (300 μM-0.3 μM quinine hydrochloride) • Salt (1M-0.2 mM NaCl) • Sour (100 mM-0.56 mM citric acid; C6H8O7).
Taste psychometric functions before and after paroxetine administration were also determined for all the individuals with previously untreated depression. From these curves, taste recognition thresholds (the concentration at which the subject would recognize the taste 50% of the time) were calculated before and after challenge in order to determine the degree of change in taste recognition that occurred (Heath et al., (2006) Journal of Neuroscience 26(49): 12664-71).
Taste recognition thresholds were determined by testing a solution of a taste modality (sweet, salt, sour, bitter) on the tip of the tongue, and the subject confirmed whether or not they recognised the taste. Referring to FIG. 3, a curve was then constructed of the number of correct identifications against the concentration of the taste in the solution. The taste recognition threshold was calculated from the curve as the concentration at which the subject would correctly identify the taste 50% of the time (Heath, Melichar, Nutt & Donaldson (2006) Journal of Neuroscience 26(49): 12664-71). […]
Patients referred to a depression clinic in Hyderabad, India were screened and recruited to the study. They had their taste recognition threshold assessed before and two hours after taking an antidepressant (Paroxetine, SSRI). […]

healthy volunteers = conditions: healthy individuals; acute dose; two hours after administration; cited from earlier work

Structure (SMILES)	post-challenge taste recognition thresholds versus healthy controls ([1]; all taste modalities, controls without challenge)	post-challenge taste recognition thresholds versus pre-challenge values (statistical significance) ([1]; salt, sweet, sour and bitter, Kruskal Wallis, post-hoc Dunn's tests)	taste recognition thresholds after acute challenge compared with baseline ([1]; salt, sweet, sour and bitter, paroxetine 20 mg, two hours after challenge, n=47)	effect on depressive symptoms ([1]; two hours after acute challenge)	bitter and sweet taste thresholds (healthy volunteers)	bitter and sour thresholds (healthy volunteers)
Fc1ccc([C@@H]2CCNC[C@H]2COc2ccc3c(c2)OCO3)cc1 [paroxetine]	significantly higher	not significantly different	reduced; also recorded: generally become lower	lack of immediate effect	significantly reduced	–
CCOc1ccccc1OC(c1ccccc1)C1CNCCO1 (stereo not drawn) [reboxetine]	–	–	–	–	–	significantly reduced

From US20190290182A1, “METHOD OF DIAGNOSTIC RELEVANCE BASED ON TASTE RECOGNITION” (RANVIER HEALTH LIMITED, priority 2016, published 2019)
